Assay results taken from the NIST ThermoML archive (doi:10.1021/acs.jced.8b00153).
“And” between values parts separate entries of the source, which are not always exact repeats. Equal entries are not always repeated.

Conditions: for surface tension liquid-gas: Drop volume; for viscosity / speed of sound / mass density / vapor or sublimation pressure: Liquid; for viscosity: Capillary tube (Ostwald / Ubbelohde) method; for speed of sound: Frequency=3 MHz, Single path-length method; for mass density: Vibrating tube method; for vapor or sublimation pressure: Ebulliometric method (Recirculating still)

CCc1ccco1 [2-ethylfuran]
Conditions | surface tension liquid-gas [mN/m] | vapor or sublimation pressure [kPa]
278.15 K | 27.22 | –
280.65 K | 26.91 | –
283.15 K | 26.59 | –
285.65 K | 26.31 | –
288.15 K | 26.01 | –
289.96 K | – | 4.96
290.65 K | 25.62 | –
292.18 K | – | 5.57
293.15 K | 25.32 | –
293.77 K | – | 6.05
295.65 K | 25.09 | –
295.94 K | – | 6.77
297.39 K | – | 7.29
298.15 K | 24.78 | –
299.52 K | – | 8.105
300.65 K | 24.43 | –
301.86 K | – | 9.08
303.15 K | 24.12 | –
304.58 K | – | 10.35
305.65 K | 23.81 | –
306.32 K | – | 11.27
308.15 K | 23.51 | –
308.82 K | – | 12.64
310.65 K | 23.22 | –
312.73 K | – | 15.06
313.15 K | 22.91 | –

Conditions | mass density | speed of sound [m/s] | viscosity [mPa·s]
278.15 K, 100 kPa | 920.97 kg/m3 | 1281 | 0.6327
280.65 K, 100 kPa | 918.26 kg/m3 | 1270.8 | 0.6126
283.15 K, 100 kPa | 915.55 kg/m3 and 915.5 kg/m3 | 1259.4 | 0.5934
283.15 K, 2000 kPa | 917.27 kg/m3 | – | –
283.15 K, 5000 kPa | 919.69 kg/m3 | – | –
283.15 K, 7000 kPa | 921.41 kg/m3 | – | –
283.15 K, 10000 kPa | 923.87 kg/m3 | – | –
283.15 K, 15000 kPa | 927.84 kg/m3 | – | –
283.15 K, 20000 kPa | 931.59 kg/m3 | – | –
283.15 K, 25000 kPa | 935.19 kg/m3 | – | –
283.15 K, 30000 kPa | 938.66 kg/m3 | – | –
283.15 K, 35000 kPa | 942.04 kg/m3 | – | –
283.15 K, 40000 kPa | 945.33 kg/m3 | – | –
283.15 K, 45000 kPa | 948.5 kg/m3 | – | –
283.15 K, 50000 kPa | 951.53 kg/m3 | – | –
283.15 K, 55000 kPa | 954.61 kg/m3 | – | –
283.15 K, 60000 kPa | 957.6 kg/m3 | – | –
283.15 K, 65000 kPa | 960.38 kg/m3 | – | –
285.65 K, 100 kPa | 912.83 kg/m3 | 1248.7 | 0.5733
288.15 K, 100 kPa | 910.1 kg/m3 and 910.08 kg/m3 | 1238.5 | 0.556
288.15 K, 2000 kPa | 911.89 kg/m3 | – | –
288.15 K, 5000 kPa | 914.37 kg/m3 | – | –
288.15 K, 7000 kPa | 916.19 kg/m3 | – | –
288.15 K, 10000 kPa | 918.68 kg/m3 | – | –
288.15 K, 15000 kPa | 922.7 kg/m3 | – | –
288.15 K, 20000 kPa | 926.63 kg/m3 | – | –
288.15 K, 25000 kPa | 930.32 kg/m3 | – | –
288.15 K, 30000 kPa | 933.89 kg/m3 | – | –
288.15 K, 35000 kPa | 937.37 kg/m3 | – | –
288.15 K, 40000 kPa | 940.66 kg/m3 | – | –
288.15 K, 45000 kPa | 943.92 kg/m3 | – | –
288.15 K, 50000 kPa | 947.13 kg/m3 | – | –
288.15 K, 55000 kPa | 950.18 kg/m3 | – | –
288.15 K, 60000 kPa | 953.28 kg/m3 | – | –
288.15 K, 65000 kPa | 956.1 kg/m3 | – | –
290.65 K, 100 kPa | 907.37 kg/m3 | 1227.6 | 0.5394
293.15 K, 100 kPa | 904.64 kg/m3 and 904.65 kg/m3 | 1216.7 | 0.5214
293.15 K, 2000 kPa | 906.44 kg/m3 | – | –
293.15 K, 5000 kPa | 909.05 kg/m3 | – | –
293.15 K, 7000 kPa | 910.93 kg/m3 | – | –
293.15 K, 10000 kPa | 913.5 kg/m3 | – | –
293.15 K, 15000 kPa | 917.66 kg/m3 | – | –
293.15 K, 20000 kPa | 921.69 kg/m3 | – | –
293.15 K, 25000 kPa | 925.54 kg/m3 | – | –
293.15 K, 30000 kPa | 929.07 kg/m3 | – | –
293.15 K, 35000 kPa | 932.7 kg/m3 | – | –
293.15 K, 40000 kPa | 936.06 kg/m3 | – | –
293.15 K, 45000 kPa | 939.48 kg/m3 | – | –
293.15 K, 50000 kPa | 942.66 kg/m3 | – | –
293.15 K, 55000 kPa | 945.78 kg/m3 | – | –
293.15 K, 60000 kPa | 948.91 kg/m3 | – | –
293.15 K, 65000 kPa | 951.86 kg/m3 | – | –
295.65 K, 100 kPa | 901.9 kg/m3 | 1205.2 | 0.5061
298.15 K, 100 kPa | 899.15 kg/m3 and 899.11 kg/m3 | 1194.9 | 0.4917
298.15 K, 2000 kPa | 901.01 kg/m3 | – | –
298.15 K, 5000 kPa | 903.73 kg/m3 | – | –
298.15 K, 7000 kPa | 905.65 kg/m3 | – | –
298.15 K, 10000 kPa | 908.34 kg/m3 | – | –
298.15 K, 15000 kPa | 912.57 kg/m3 | – | –
298.15 K, 20000 kPa | 916.67 kg/m3 | – | –
298.15 K, 25000 kPa | 920.61 kg/m3 | – | –
298.15 K, 30000 kPa | 924.3 kg/m3 | – | –
298.15 K, 35000 kPa | 928.03 kg/m3 | – | –
298.15 K, 40000 kPa | 931.52 kg/m3 | – | –
298.15 K, 45000 kPa | 934.92 kg/m3 | – | –
298.15 K, 50000 kPa | 938.29 kg/m3 | – | –
298.15 K, 55000 kPa | 941.41 kg/m3 | – | –
298.15 K, 60000 kPa | 944.69 kg/m3 | – | –
298.15 K, 65000 kPa | 947.7 kg/m3 | – | –
300.65 K, 100 kPa | 896.4 kg/m3 | 1184.1 | 0.4774
303.15 K, 100 kPa | 893.64 kg/m3 and 893.58 kg/m3 | 1172.5 | 0.4637
303.15 K, 2000 kPa | 895.61 kg/m3 | – | –
303.15 K, 5000 kPa | 898.41 kg/m3 | – | –
303.15 K, 7000 kPa | 900.35 kg/m3 | – | –
303.15 K, 10000 kPa | 903.06 kg/m3 | – | –
303.15 K, 15000 kPa | 907.56 kg/m3 | – | –
303.15 K, 20000 kPa | 911.72 kg/m3 | – | –
303.15 K, 25000 kPa | 915.8 kg/m3 | – | –
303.15 K, 30000 kPa | 919.58 kg/m3 | – | –
303.15 K, 35000 kPa | 923.37 kg/m3 | – | –
303.15 K, 40000 kPa | 927 kg/m3 | – | –
303.15 K, 45000 kPa | 930.47 kg/m3 | – | –
303.15 K, 50000 kPa | 933.84 kg/m3 | – | –
303.15 K, 55000 kPa | 937.1 kg/m3 | – | –
303.15 K, 60000 kPa | 940.35 kg/m3 | – | –
303.15 K, 65000 kPa | 943.48 kg/m3 | – | –
305.65 K, 100 kPa | 890.87 kg/m3 | 1161.8 | 0.45
308.15 K, 100 kPa | 888.1 kg/m3 and 888.06 kg/m3 | 1151.5 | 0.4372
308.15 K, 2000 kPa | 890.15 kg/m3 | – | –
308.15 K, 5000 kPa | 893.04 kg/m3 | – | –
308.15 K, 7000 kPa | 895.02 kg/m3 | – | –
308.15 K, 10000 kPa | 897.93 kg/m3 | – | –
308.15 K, 15000 kPa | 902.45 kg/m3 | – | –
308.15 K, 20000 kPa | 906.8 kg/m3 | – | –
308.15 K, 25000 kPa | 910.98 kg/m3 | – | –
308.15 K, 30000 kPa | 914.84 kg/m3 | – | –
308.15 K, 35000 kPa | 918.68 kg/m3 | – | –
308.15 K, 40000 kPa | 922.47 kg/m3 | – | –
308.15 K, 45000 kPa | 925.95 kg/m3 | – | –
308.15 K, 50000 kPa | 929.45 kg/m3 | – | –
308.15 K, 55000 kPa | 932.76 kg/m3 | – | –
308.15 K, 60000 kPa | 936.18 kg/m3 | – | –
308.15 K, 65000 kPa | 939.24 kg/m3 | – | –
310.65 K, 100 kPa | 885.31 kg/m3 | 1140.6 | 0.4258
313.15 K, 100 kPa | – | – | 0.4149
